ChEMBL document CHEMBL6096728, “Simultaneous Induction of Immunogenic Pyroptosis and PD-L1 Downregulation by One Single Photosensitizer for Synergistic Cancer Photoimmunotherapy” (J Med Chem, 2025)
Active and inactive are the calls of the source. The rule behind the calls is not given here.

What was measured:
[1] = test system: 4T1; test: Antitumor immunity against mouse 4T1 cells implanted in BALB/c mouse model assessed as fold increase in CD8+ T cells in spleen at 25 mg/kg, iv measured after 14 days under light irradiation of 300 mW.cm/2 at 400 to 700nm measured after 5 mins […]; assay type: functional; settings: time 14 day
[2] = test system: 4T1; test: Antitumor immunity against mouse 4T1 cells implanted in BALB/c mouse model assessed as upregulation of proportion of dendritic cells in lymph node at 25 mg/kg, iv measured after 14 days under light irradiation of 300 mW.cm/2 at 400 to 700nm measured after 5 mins by flow cytometry analysis; assay type: functional, organism-based; settings: time 14.0 day
[3] = test system: 4T1; test: Antitumor immunity against mouse 4T1 cells implanted in BALB/c mouse model assessed as upregulation of proportion of neutrophils in lymph node at 25 mg/kg, iv measured after 14 days under light irradiation of 300 mW.cm/2 at 400 to 700nm measured after 5 mins by flow cytometry analysis; assay type: functional, organism-based; settings: time 14.0 day
[4] = test system: MDA-MB-231; test: Induction of pyroptosis in human MDA-MB-231 cells assessed as appearance of large bubbles in cell at 0.5 uM preincubated with compound for 4 hrs followed by light irradiation of 20 mW.cm/2 at 400 to 700nm for 10 mins by confocal fluorescence microscopy analysis; assay type: functional, cell-based
[5] = test system: 4T1; test: Antitumor immunity against mouse 4T1 cells implanted in BALB/c mouse model assessed as fold increase in CD4+ T cells in spleen at 25 mg/kg, iv measured after 14 days under light irradiation of 300 mW.cm/2 at 400 to 700nm measured after 5 mins […]; assay type: functional; settings: time 14 day
[6] = Drug uptake in mouse 4T1 cells assessed as increase in fluorescence intensity at 2.5 uM measured after 180 mins by flow cytometry analysis; assay type: ADME, cell-based; settings: 4t1, 3 h
[7] = Toxicity in BALB/c mouse assessed as change in body weight at 25 mg/kg, iv measured after 14 days; assay type: organism-based; settings: in vivo, 336 h, time 14 day
[8] = test system: MDA-MB-231; test: Induction of pyroptosis in human MDA-MB-231 cells assessed as increase in LDH release at 0.1 to 0.5 uM incubated for 12 hrs under light irradiation of 20 mW.cm/2 at 400 to 700nm for 10 mins; assay type: functional, cell-based; settings: dose 0.1-0.5 µM
[9] = Phototoxicity against mouse 4T1 cells preincubated for 24 hrs followed by light irradiation of 20 mW.cm/2 at 400 to 700nm for 10 mins under hypoxia condition by CCK-8 method; assay type: functional, cell-based; settings: 4T1, light or radiation study
[10] = Toxicity in BALB/c mouse assessed as change in body weight at 25 mg/kg, iv measured after 14 days under light irradiation of 300 mW.cm/2 at 400 to 700nm measured after 5 mins; assay type: organism-based; settings: in vivo, 336 h, time 14 day
[11] = test system: MDA-MB-231; test: Induction of pyroptosis in human MDA-MB-231 cells assessed as upregulation of GSDME-N expression level at 0.1 to 0.5 uM preincubated with compound for 12 hrs followed by light irradiation of 20 mW.cm/2 at 400 to 700nm for 10 mins by Western blot analysis; assay type: functional, cell-based; settings: dose 0.1-0.5 µM
[12] = test system: 4T1; test: Antitumor immunity against mouse 4T1 cells implanted in BALB/c mouse model assessed as increase in IFN-gamma secretion in tumors at 25 mg/kg, iv measured after 14 days under light irradiation of 300 mW.cm/2 at 400 to 700nm measured after 5 mins by ELISA method; assay type: functional, organism-based; settings: time 14.0 day
[13] = Drug accumulation in BALB/c mouse tumor implanted with mouse 4T1 cells assessed as increase in fluorescence intensity at 25 mg/kg, iv measured after 12 hrs by imaging based analysis; assay type: ADME, organism-based, Neoplasm; settings: in vivo
[14] = Toxicity in BALB/c mouse assessed as effect on WBC at 25 mg/kg, iv measured after 14 days under light irradiation of 300 mW.cm/2 at 400 to 700nm measured after 5 mins; assay type: organism-based; settings: in vivo, 336 h, time 14 day
[15] = test system: MDA-MB-231; test: Induction of pyroptosis in human MDA-MB-231 cells assessed as upregulation of caspase-3 expression level at 0.1 to 0.5 uM incubated with compound for 12 hrs under dark condition by Western blot analysis; assay type: functional, cell-based; settings: dose 0.1-0.5 µM
[16] = Toxicity in BALB/c mouse assessed as effect on heart at 25 mg/kg, iv measured after 14 days by H and E staining based analysis; assay type: organism-based; settings: in vivo, 336 h, time 14 day
[17] = test system: MDA-MB-231; test: Photocytotoxicity in human MDA-MB-231 cells assessed as cell viablity incubated for 24 hrs under light irradiation of 50 mW.cm/2 at 400 to 700nm measured after 10 mins in hypoxia condition by CCK-8 method; assay type: functional, cell-based; settings: MDA-MB-231, light or radiation study
[18] = test system: 4T1; test: Antitumor activity against mouse 4T1 cells implanted in BALB/c mouse model assessed as reduction in tumor volume at 25 mg/kg, iv measured after 14 days; assay type: functional, organism-based; settings: time 14.0 day
[19] = test system: MDA-MB-231; test: Cytotoxicity against human MDA-MB-231 cells at 0.01 to 10 uM incubated for 2 hrs under dark condition by CCK-8 method; assay type: functional, cell-based; settings: dose 0.01-10 µM
[20] = Toxicity in BALB/c mouse assessed as effect on hemoglobin at 25 mg/kg, iv measured after 14 days under light irradiation of 300 mW.cm/2 at 400 to 700nm measured after 5 mins; assay type: organism-based; settings: in vivo, 336 h, 0.7 µM, time 14 day
[21] = test system: MDA-MB-231; test: Induction of cell death in human MDA-MB-231 cells assessed as decrease in green fluorescence at 0.5 uM incubated for 24 hrs followed by light irradiation of 20 mW.cm/2 at 400 to 700nm for 10 mins by Calcein-AM/PI staining based analysis; assay type: functional
[22] = test system: 4T1; test: Induction of intracellular ROS generation in mouse 4T1 cells assessed as increase in fluorescence intensity at 0.1 uM preincubated for 2 hrs followed by compound washout further incubated with DCFH-DA probe for 30 mins under light irradiation of 20 mW.cm/2 at 400 to 700nm measured after 10 mins by flow cytometry analysis; assay type: functional, cell-based
[23] = test system: 4T1; test: Induction of intracellular ROS generation in mouse 4T1 cells assessed as increase in fluorescence intensity at 0.1 uM preincubated for 2 hrs followed by compound washout further incubated with DCFH-DA probe for 30 mins under light irradiation of 20 mW.cm/2 at 400 to 700nm measured after 10 mins in presence of NaN3 by flow cytometry analysis; assay type: functional, cell-based
[24] = test system: 4T1; test: Induction of intracellular ROS generation in mouse 4T1 cells assessed as increase in fluorescence intensity at 0.1 uM preincubated for 2 hrs followed by compound washout further incubated with DCFH-DA probe for 30 mins under light irradiation of 20 mW.cm/2 at 400 to 700nm measured after 10 mins in presence of tiron by flow cytometry analysis; assay type: functional, cell-based
[25] = test system: MDA-MB-231; test: Downregulation of PD-L1 expression level in human MDA-MB-231 cells at 0.5 uM preincubated with chloroquine followed by compound addition and measured after 24 hrs under light irradiation of 20 mW.cm/2 at 400 to 700nm for 10 mins by Western blot analysis; assay type: functional, cell-based
[26] = test system: 4T1; test: Antitumor immunity against mouse 4T1 cells implanted in BALB/c mouse model assessed as increase in IL1beta secretion in tumors at 25 mg/kg, iv measured after 14 days under light irradiation of 300 mW.cm/2 at 400 to 700nm measured after 5 mins by ELISA method; assay type: functional, organism-based; settings: time 14.0 day

For O=c1cc2sc3cc(N4CCNCC4)ccc3nc-2c2ccccc12, the “fold change (FC)” value [1] was 6.3, the Activity [2] was “Active” and the Activity [3] was “Active”. For the same compound, the Activity [4] was “Active”, the “fold change (FC)” value [5] was 6.8 and the Drug uptake [6] was “Active”. The Activity [7] was “Non-toxic”, the Activity [8] was “Active” and the IC50 [9] was 693 nM. The Activity [10] was “Non-toxic”, the Activity [11] was “Active” and the Activity [12] was “Active”. The Drug uptake [13] was “Active”, the Activity [14] was “Non-toxic” and the Activity [15] was “Active; Compound Showed Negligible Changes”. For the same compound, the Activity [16] was “Non-toxic”, the IC50 [17] was 983 nM and the Activity [18] was “Active”. The Activity [19] was “Active; Compound Showed Low Toxicity”, the Activity [20] was “Non-toxic” and the Activity [21] was “Active”. The Activity [22] was “Active”, the Activity [23] was “inactive” and the Activity [24] was “inactive”. The Activity [25] was “inactive” and the Activity [26] was “Active”.
